# Target: T1, peptide deformylase (Escherichia coli, UniProt P0A6K3)
# T1 construct: made in house
# Test: Peptide deformylase assay (continuous / discontinuous, f-ML-pNA substrate coupled with Aeromonas aminopeptidase)
# Format: biochemical
# Settings: tested as a 1:1 mixture of diastereomers; read-out: IC50 against peptide deformylase
# Experimental: The dipeptide substrate, N-formyl-methionylleucyl-p-nitroanilide (f-ML-pNA) is first deformylated by the peptide deformylase to give the corresponding dipeptide with a free amino terminus, which is a substrate for an aminopeptidase from Aeromonas proteolytica (Sigma Chemical Company). Sequential action by the aminopeptidase releases p-nitroaniline, a chromophore which can be detected spectrophotometrically. Peptide deformylase enzyme is prepared as described in Rajagopalan et al., Biochemistry (1997) 36:13910-13918. The dipeptide substrate is prepared as described in Wei and Pei (1997) Anal. Biochem. 250:29-34. Assays are carried out at 23° C. Assays are performed in polystyrene cuvettes which contain 50 mM potassium phosphate, pH 7.0, 100 μM ethylene glycol bis(b-aminoethyl ether)-N,N′-tetraacetic acid (EGTA), 0 to 200 μM peptide substrate, and 0.8 unit Aeromonas aminopeptidase. […] Reactions are monitored continuously at 405 nm in a Perkin-Elmer λ3 UV/VIS spectrophotometer, and the initial rates are calculated from the early part of the reaction progression curves (<60 s). […]
# Discontinuous reactions are carried out in a buffer containing 50 mM potassium phosphate, pH 7.0, 100 μM EGTA, and 0 to 200 μM peptide substrate (total volume 250 or 500 μl). […] The amount of p-nitroaniline released is determined by measuring its absorbance at 405 nm. […]
# T1 sequence (P0A6K3 whole entry): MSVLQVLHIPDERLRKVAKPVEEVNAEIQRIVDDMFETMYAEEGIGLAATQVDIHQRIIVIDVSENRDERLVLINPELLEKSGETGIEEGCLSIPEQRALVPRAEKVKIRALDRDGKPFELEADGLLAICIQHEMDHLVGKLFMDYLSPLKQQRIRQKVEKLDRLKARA
row,SMILES,IC50
1,CCCCC(CS)C(=O)N[C@@H](CC(C)C)C(=O)Nc1ccc([N+](=O)[O-])cc1 (mixture of isomers) [Compound 110],< 10 µM
2,CCCCC(CS)C(=O)N[C@H](C(=O)N1CCC[C@H]1CO)C(C)C (mixture of isomers) [Compound 111],< 10 µM
